According to patent US20240391923A1, “METHIONINE ADENOSYLTRANSFERASE 2A INHIBITOR FOR TREATING MTAP DELETION-TYPE CANCER” (SUZHOU GENHOUSE BIO CO., LTD., priority 2022, published 2024):
Where two headings read alike, the source gives them in different places.

Key:
DOHH-2 cell strain = assay: Tumor cell proliferation inhibition assay (CellTiter-Glo), DOHH-2; format: cell-based; details: Homo sapiens, 120 h, DOHH-2 cells, 5-day treatment
Experimental: (§1) After the HCT116-MTAP-knockout (−/−) cell strain, the HCT116-MTAP wild-type(+/+)-cell strain, the DOHH-2 cell strain, or the Hut-78 cell strain was treated with the test compound for 5 days, the ATP level was measured using a CellTiter-Glo kit of Promega to evaluate the inhibition of the test compound against the growth of the tumor cell strain.
(§2) In the present application, the HCT116-MTAP-knockout (−/−) cell strain, the HCT116-MTAP wild-type (+/+)-cell strain, the DOHH-2 cell strain, or the Hut-78 cell strain was seeded into a 96-well cell culture plate at an appropriate cell density. After 24 h, the cells were treated using the test compounds diluted 1:3 fold at the highest concentration of 10 μM for 10 gradients, and a DMSO treatment group was set up separately. The cells were cultured in a 37° C./5% CO2 incubator for 5 days.

[1] = tested on: SDMA in human colon cancer cell line HCT116; assay: Cell symmetric dimethylarginine (SDMA) test, In-cell Western, HCT116 (MTAP wild-type); format: cell-based; details: Homo sapiens, HCT-116, 96 h
How it was run: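 SDMA level, an indirect readout of cellular MAT2A inhibition, measured by In-cell Western as background-subtracted 800/700 nm signal against DRAQ5. Cells exposed 4 days to six 1:4-diluted doses from 6 μM; inhibition relative to DMSO, IC50 from sigmoidal fit.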

[2] = tested on: SDMA in HCT116-MTAP-knockout cell line; assay: Cell symmetric dimethylarginine (SDMA) test, In-cell Western, HCT116-MTAP-knockout; format: cell-based; details: Homo sapiens, 96 h
[3] = tested on: HCT116-MTAP wild-type (+/+)-cell strain; assay: Tumor cell proliferation inhibition assay (CellTiter-Glo), HCT116-MTAP wild-type (+/+); format: cell-based; details: Homo sapiens, 120 h, HCT116-MTAP wild-type (+/+) cells, 5-day treatment
How it was run: (§3)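 Read-out: CellTiter-Glo ATP luminescence after 5-day compound exposure at 37° C./5% CO2. Dosing began 24 h post-seeding, 10 μM top, 1:3 dilutions, 10 points; DMSO-treated cells as reference.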

[4] = target: MAT2A recombinant protein (Homo sapiens, UniProt P31153); assay: MAT2A inhibitory activity (malachite green colorimetric enzyme assay); format: biochemical
MAT2A recombinant protein, sequence (P31153 whole entry): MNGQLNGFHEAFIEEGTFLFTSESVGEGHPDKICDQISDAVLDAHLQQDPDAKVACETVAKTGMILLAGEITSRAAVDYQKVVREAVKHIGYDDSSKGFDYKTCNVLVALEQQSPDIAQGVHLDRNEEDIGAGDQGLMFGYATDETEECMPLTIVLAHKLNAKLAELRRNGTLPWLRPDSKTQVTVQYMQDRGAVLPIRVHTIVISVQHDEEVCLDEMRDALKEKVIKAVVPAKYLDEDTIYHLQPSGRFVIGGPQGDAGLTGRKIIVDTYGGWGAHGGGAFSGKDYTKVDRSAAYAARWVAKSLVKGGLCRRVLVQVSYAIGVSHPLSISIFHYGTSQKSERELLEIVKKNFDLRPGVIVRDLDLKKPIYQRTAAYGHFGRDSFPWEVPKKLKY
How it was run: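 Compounds tested over 10 points, 3-fold dilutions, top final concentration 1000 nM. Enzyme reaction: MAT2A, L-methionine, ATP, room temperature, 60 min, in HEPES pH 7.5 buffer with KCl, MgCl2 and DTT; inorganic phosphate read colorimetrically (malachite green, A630). Inhibition vs log concentration fitted for IC50.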

[5] = tested on: HCT116-MTAP-knockout (−/−) cell strain; assay: Tumor cell proliferation inhibition assay (CellTiter-Glo), HCT116-MTAP-knockout (-/-); format: cell-based; details: Homo sapiens, 120 h, HCT116-MTAP-knockout (−/−) cells, 5-day treatment
How it was run: as §3

[6] = Pharmacokinetic test in mice (IV and PO); format: in vivo; details: mouse, plasma, BALB/c mice; for half-life: read-out: T½ (converted); for Vd: read-out: Vz
Hut-78 cell strain = assay: Tumor cell proliferation inhibition assay (CellTiter-Glo), Hut-78; format: cell-based; details: Hut-78 cells, 5-day treatment
Experimental: as §1, §2

[7] = IC50 score, read-out: Tumor cell 5-day relative growth inhibition (DOHH-2) (nM), score
[8] = IC50 value, read-out: Tumor cell 5-day relative growth inhibition (DOHH-2)
[9] = IC50 score class, read-out: Cell 96 h SDMA Inhibition (HCT116-MTAP+/+) (score)
[10] = IC50 score class, read-out: Cell 96 h SDMA Inhibition (HCT116-MTAP−/−) (score)
[11] = read-out: Cell 96 h SDMA Inhibition (HCT116-MTAP−/−)
[12] = read-out: Cell 96 h SDMA inhibition (HCT116-MTAP+/+)
[13] = IC50 score, read-out: Tumor cell 5-day relative growth inhibition (HCT116-MTAP+/+) (nM), score
[14] = IC50 value, read-out: Tumor cell 5-day relative growth inhibition (HCT116-MTAP+/+)
[15] = IC50 score class, read-out: MAT2A Inhibition (score)
[16] = IC50 score, read-out: Tumor cell 5-day relative growth inhibition (HCT116-MTAP−/−) (nM), score
[17] = IC50 value, read-out: Tumor cell 5-day relative growth inhibition (HCT116-MTAP−/−)
[18] = Homo sapiens, HuT78, 120 h, IC50 score, read-out: Tumor cell 5-day relative growth inhibition (Hut-78) (nM), score
[19] = Homo sapiens, HuT78, 120 h, IC50 value, read-out: Tumor cell 5-day relative growth inhibition (Hut-78)

Compound	IC50 (DOHH-2 cell strain; [7]) [nM]	IC50 (DOHH-2 cell strain; [8]) [nM]	IC50 [1, 9] [nM]	IC50 [2, 10] [nM]	IC50 [2, 11] [nM]	IC50 [1, 12] [nM]	IC50 [4, 15] [nM]	IC50 ([4]; read-out: MAT2A Inhibition) [nM]	also measured
CCn1cc2c(n1)c(=O)n(-c1cnccn1)c1cc(Cl)ccc21 [Compound B6]	≥ 2000	16900	200 to 1000	> 3000	3570	–	–	–	–
CCn1cc2c(n1)c(=O)n(-c1cccc(O)c1)c1cc(Cl)ccc21 [Compound B8]	500 to 2000	1000	1000 to 3000	200 to 1000	271	2100	–	–	–
CCn1cc2c(n1)c(=O)n(-c1cccc(C#N)c1)c1cc(Cl)ccc21 [Compound B9]	500 to 2000	1090	1000 to 3000	200 to 1000	328	2350	–	–	–
O=c1c2[nH]ncc2c2ccc(Cl)cc2n1-c1cccnc1 [Compound B13]	500 to 2000	979	1000 to 3000	< 200	188	2790	< 100	17.2	IC50 [3, 13]: 500 to 2000 nM; IC50 [3, 14]: 928 nM; IC50 [5, 16]: < 500 nM; IC50 [5, 17]: 282 nM
CCn1cc2c(n1)c(=O)n(-c1cncc(F)c1)c1cc(Cl)ccc21 [Compound B14]	≥ 2000	6680	1000 to 3000	1000 to 3000	–	–	< 100	66.9	–
Cc1c2c(nn1C)c(=O)n(-c1cccnc1)c1cc(Cl)ccc21 [Compound B16]	500 to 2000	811	200 to 1000	< 200	63.6	636	< 100	26.8	–
CCn1nc2c(=O)n(-c3cccnc3)c3cc(Cl)ccc3c2c1C [Compound B17]	< 500	396	200 to 1000	< 200	51.5	635	< 100	24	AUC ([6]; IV 2 mg/kg): 3.46 µM·h; clearance ([6]; IV 2 mg/kg): 27.7 mL/min/kg; bioavailability ([6]; IV 2 mg/kg, PO 10 mg/kg): 127%; half-life ([6]; IV 2 mg/kg): 14.4 min; Vd ([6]; IV 2 mg/kg): 0.6 L/kg; AUC ([6]; PO 10 mg/kg): 22.5 µM·h; half-life ([6]; PO 10 mg/kg): 28.2 min
CCn1cc2c(n1)c(=O)n(Cc1c[nH]cn1)c1cc(Cl)ccc21 [Compound B18]	≥ 2000	> 2000	–	> 3000	8410	–	100 to 1000	149	–
CCn1nc2c(=O)n(-c3cccnc3)c3cc(Cl)ccc3c2c1Cl [Compound B20]	≥ 2000	2360	> 3000	200 to 1000	521	5150	< 100	37.2	–
Cn1nc2c(=O)n(-c3cccnc3)c3cc(Cl)ccc3c2c1C(F)F [Compound B27]	≥ 2000	11700	> 3000	1000 to 3000	1280	> 3000	< 100	77	–
CCn1cc2c(n1)c(=O)n(-c1c(C)ccnc1C)c1cc(Cl)ccc21 [Compound B31]	≥ 2000	8080	200 to 1000	< 200	169	971	< 100	65.3	–
CCn1cc2c(n1)c(=O)n(-c1cccnc1C(F)(F)F)c1cc(Cl)ccc21 [Compound B32]	≥ 2000	2700	1000 to 3000	< 200	53.9	2260	< 100	43.5	–
COCCn1cc2c(n1)c(=O)n(-c1cccnc1)c1cc(Cl)ccc21 [Compound B45]	≥ 2000	2020	> 3000	< 200	132	3220	< 100	27.4	–
O=c1c2nn(CCO)cc2c2ccc(Cl)cc2n1-c1cccnc1 [Compound B46]	≥ 2000	6030	> 3000	200 to 1000	236	19400	–	–	–
CCn1cc2c(n1)c(=O)n(-c1cnccc1C)c1cc(Cl)ccc21 [Compound B51]	≥ 2000	7690	> 3000	> 3000	8520	> 10000	< 100	40.8	–
Cn1cc2c(n1)c(=O)n(-c1cccnc1)c1cc(C(F)(F)F)ccc21 [Compound B69]	500 to 2000	1150	1000 to 3000	< 200	109	1470	< 100	28	–
Cn1cc2c(n1)c(=O)n(-c1cccnc1)c1cc(C3CC3)ccc21 [Compound B70]	500 to 2000	1930	1000 to 3000	200 to 1000	375	1550	–	–	–
Cn1cc2c(n1)c(=O)n(-c1cccnc1)c1nc(C3CC3)ccc21 [Compound B71]	500 to 2000	1290	1000 to 3000	200 to 1000	203	1270	–	–	–
Cc1ncccc1-n1c(=O)c2nn(C)cc2c2ccc(C3CC3)cc21 [Compound B74]	< 500	340	200 to 1000	< 200	19.3	261	< 100	44.3	–
Cc1c2c(nn1C)c(=O)n(-c1cccnc1)c1nc(C(F)(F)F)ccc21 [Compound B198]	–	–	200 to 1000	< 200	48.5	567	< 100	17.1	IC50 [3, 13]: 500 to 2000 nM; IC50 [3, 14]: 745 nM; IC50 [5, 16]: < 500 nM; IC50 [5, 17]: 31.5 nM; IC50 (Hut-78 cell strain; [18]): < 500 nM; IC50 (Hut-78 cell strain; [19]): 40.2 nM; AUC ([6]; IV 2 mg/kg): 8.7 µM·h; clearance ([6]; IV 2 mg/kg): 10.7 mL/min/kg; bioavailability ([6]; IV 2 mg/kg, PO 10 mg/kg): 150%; half-life ([6]; IV 2 mg/kg): 40.9 min; Vd ([6]; IV 2 mg/kg): 0.6 L/kg; AUC ([6]; PO 10 mg/kg): 65.2 µM·h; half-life ([6]; PO 10 mg/kg): 55.1 min
O=c1c2nn(C3CC3)cc2c2ccc(C(F)(F)F)nc2n1-c1cccnc1 [Compound B215]	–	–	1000 to 3000	200 to 1000	210	1180	< 100	21.7	IC50 [3, 13]: ≥ 2000 nM; IC50 [3, 14]: 4200 nM; IC50 [5, 16]: < 500 nM; IC50 [5, 17]: 104 nM; IC50 (Hut-78 cell strain; [18]): < 500 nM; IC50 (Hut-78 cell strain; [19]): 310 nM
Cc1ncccc1-n1c(=O)c2nn(C)cc2c2ccc(Cl)cc21 [Compound B233]	–	–	200 to 1000	< 200	6.35	250	< 100	13.4	IC50 [3, 13]: < 500 nM; IC50 [3, 14]: 135 nM; IC50 [5, 16]: < 500 nM; IC50 [5, 17]: 15.5 nM; IC50 (Hut-78 cell strain; [18]): < 500 nM; IC50 (Hut-78 cell strain; IC50 value, read-out: Tumor cell 5-day relative growth inhibition (Hut-78)): 8.05 nM
